# Reference: US20220008542A1, “ANTI-PROTOZOAL COMPOUNDS AND USES THEREOF” (AUBURN UNIVERSITY, priority 2017, published 2022)
# Like-named read-outs stand apart in the source and are kept apart here.
# Key:
# [1] = tested on: T. foetus trophozoites; assay: Example 1: T. foetus trophozoites in culture tubes, surviving organisms counted by hemocytometer, re-culture at 12 hours; format: cell-based, Tritrichomonas foetus; conditions: for inhibition of parasite growth: PO 75 mg mL^-1, OX 50 mg mL^-1, compound alone; for reduction in motile organisms: after 2 hours of culture, compound alone; for motile organisms after re-culture: re-culture at 12 hours, examination at 24 hours
# Protocol: (§1) Experiments were performed in vitro using pure cultures of T. foetus trophozoites with the addition of i) an antiprotozoal compound alone or ii) a veterinary formulation comprising an antiprotozoal compound and a polymer. Samples were evaluated at predetermined time points using Neubauer hemocytometers (C-Chip® NanoEnTek Inc., Pleasanton, Calif.) to determine the number of viable organisms and the induction of the pseudocyst form. Cultures were tested for reversibility to the motile trophozoite form or replication of organisms.
# (§2) The CDTf3 cloned strain of T. foetus was utilized for the instant examples. The parasites were cultivated in trypticase-yeast extract-maltose (TYM) Diamond's medium (DM) and supplemented with 10% heat-inactivated fetal bovine serum (Atlanta Biologics, Norcross, Ga.) at 37° C. for 24-48 hours until adequate numbers of trichomonads were present to perform the required number of replications. Following culture, T. foetus organisms were washed and re-suspended in 1 mL of sterile phosphate buffered saline (PBS) and then inoculated into 15 mL conical tubes (BD Falcon, Franklin Lakes, N.J.) or tissue culture wells (Sarstedt, Inc., Newton, N.C.) containing DM.
# Trophozoites (3.75×10^5 mL^−1) were washed in PBS (VWR, Radnor, Pa.) and inoculated into 10 mL of fresh DM. At time 0, each of the following treatment groups was added to culture tubes: Group 1) control: 0.5 mL DM; Group 2) 0.5 mL pluronic lecithin organogel (PLO; Pluronic F127); Group 3) 75 mg ponazuril (PO) (0.5 mL); Group 4) 50 mg oxibendazole (OX) (0.5 mL); Group 5) 37.5 mg PO (0.25 mL)+0.25 mL PLO; and Group 6) 25 mg OX (0.25 mL)+0.25 mL PLO.
# PLO (Pluronic F127 Letco Medical, Decatur, Ala.) was combined with OX (Anthelcide EQ® Zoetis, Florham Park, N.J.) or PO (Marquis® Merial, Duluth, Ga.) paste formulations by shear force, syringe-to-syringe-blending using two luer-lock syringes and a rapid fill connector (Baxter, Inglewood, Calif.). Each treatment was applied to conical culture tubes in 5 replicates. Following growth at 37° C., samples were taken every 2 hours for a total of 12 hours, and the tubes were vortexed prior to removal of a 20 μL sample. From these samples, the surviving organisms were counted utilizing disposable Neubauer hemocytometers (C-Chip® NanoEnTek Inc., Pleasanton, Calif.). At 12 hours post-treatment, each formulation was recultured in fresh DM without antiprotozoal compound and evaluated microscopically daily for the presence of T. foetus organisms in culture. These assays were performed in order to evaluate if the effects exerted by the antiprotozoal compounds could be reversed.
# [2] = tested on: T. foetus trophozoites; assay: Example 3: T. foetus trophozoites in tissue culture wells, 5 passages (120 hours), re-emergence of organisms; format: cell-based, Tritrichomonas foetus; conditions: for subsequent cultures: over a 5 day period
# Protocol: as §1, §2
# Trophozoites (5×10^4 mL^−1) were cultured as described above and added to all tissue culture wells along with 3 mL of DM for a total volume of 4 mL of DM with 50,000 organisms per well. At time 0, each of the following treatment groups were added to tissue culture wells as follows: Group 1) positive control 4 mL DM; Group 2) negative control 4 mL 70% ethanol (EtOH); Group 3) 150 mg oxfendazole solution (OXF) (1 mL)+2 mL Velvachol (VC)+1 mL PLO; Group 4) 150 mg OXF (1 mL)+3 mL VC; Group 5) 150 mg OXF (1 mL)+3 mL EtOH; Group 6) 150 mg OXF (1 mL)+2 mL EtOH+1 mL PLO; Group 7) 1 mL EtOH+2 mL VC+1 mL PLO; Group 8) 1 mL EtOH+3 mL VC; Group 9) 3 mL EtOH+1 mL PLO; Group 10) 4 mL EtOH; Group 11) 4 mL VC; Group 12) 150 mg oxfendazole dissolved in 4 mL 99% DMSO; and Group 13) 4 mL 99% DMSO.
# The OXF (U.S. Pharmacopeial Convention Rockville, Md.) stock solution was made in EtOH (Humco Texarkana, TX) and stored at 150 mg mL^−1, with the exception of Formulation 13 which included OXF dissolved in 99% DMSO (VedCo, Saint Joseph, Mo.). The combinations of PLO (Pluronic F127 Letco Medical, Decatur, Ala.), VC (Valeant North America LLC, Bridgewater, N.J.), EtOH (Humco Texarkana, TX), and OXF stock solution were mixed as described above.
# Each treatment was applied to tissue culture wells in duplicate. Following culture as described in Example 2, samples were collected every 8 hours for a total of 24 hours and counted as previously described. At 24 hours post-treatment and following counting of organisms, each formulation was removed from the tissue culture well and centrifuged at 4000 g for 10 minutes. The supernatant was removed and placed in a labeled vial for evaluation of drug concentration at a later time. The pellet was re-suspended in 4 mL of DM and placed once again in a tissue culture well before being re-incubated at 37° C. This process was repeated every 24 hours for 5 passages (120 hours) to allow for re-emergence of any organisms. Assays were continued to be microscopically examined during this period for the presence of T. foetus organisms in culture by counting of live organisms.
SMILES,inhibition of parasite growth [1],reduction in motile organisms [1],motile organisms after re-culture [1],"surviving organisms / form seen, 8 hours post-incubation [2]","surviving organisms / form seen, 16 hours post-incubation [2]","surviving organisms / form seen, 24 hours post-incubation [2]","surviving organisms / form seen, 48 hours post-incubation [2]","surviving organisms / form seen, 72 hours post-incubation [2]","surviving organisms / form seen, 96 hours post-incubation [2]","surviving organisms / form seen, 120 hours post-incubation [2]",death of trophozoites ([2]; listed as 99% DMSO),subsequent cultures [2],death of trophozoites [2]
"CCCOc1ccc2nc(NC(=O)OC)[nH]c2c1 [OX, methyl (5-propoxy-1H-benzimidazol-2-yl)carbamate]",significantly inhibited parasite growth,98%,reestablishment of motile organisms was observed,–,–,–,–,–,–,–,–,–,–
"Cc1cc(-n2c(=O)[nH]c(=O)n(C)c2=O)ccc1Oc1ccc(S(=O)(=O)C(F)(F)F)cc1 [PO, 1-Methyl-3-(3-methyl-4-(4-((trifluoromethyl)sulfonyl)phenoxy)phenyl)-1,3,5-triazinane-2,4,6-trione]",significantly inhibited parasite growth,98%,reestablishment of motile organisms was observed,–,–,–,–,–,–,–,–,–,–
C[S+](C)[O-] [DMSO],–,–,–,dead trophs,dead trophs,dead trophs,dead trophs,dead trophs,no cells,no cells,capable of inducing death of trophozoites,negative cultures,–
"CCO [EtOH, ethanol]",–,–,–,dead trophs,dead trophs,dead trophs,dead trophs,dead trophs,no cells,no cells,–,negative cultures,capable of inducing death of trophozoites
